Assay results reported in patent US20070280957A1, “Change of the Load State of Mhc Molecules” (priority 2004, published 2007).

Key:
[1] = target: T1, soluble HLA-DR1 (DRA1*0101, DRB1*0101) (Homo sapiens, UniProt P01903+P01911, A100R/D57E/F55L/F60I/F76Y/I96L/L162R/M171V/P40L/Q125E/R42F/V115G/Y59C); assay: Loading of empty soluble HLA-DR1 with biotinylated HA306-318 peptide, sandwich ELISA; format: biochemical
T1 construct: shortened α- and […]-chains without the cytoplasmatic and transmembrane portion of the MHC molecule; made in house; host or cells: S2 insect cells
Experimental: In order to monitor catalysis of the loading of HLA-DR molecules by compounds of formulae I, IA, II, III and IV1 to IV3, empty, soluble DR molecules were incubated with biotinylated, high-affinity peptide, and these were then detected in a sandwich ELISA for the MHC complexes.
All the batches were then adjusted to a final volume of 10 μl with 2% BSA-PO4^3− buffer (in the case of HLA-DR1 only with PO4^3− buffer). The reaction was started by incubation at 37° C. in a thermocycler. After 40 minutes, the incubation was terminated and the loading reaction was stopped by storage on ice and addition of 50 μl of ice-cold 1% BSA-PBS.
The detection of bound peptide was carried out by means of a sandwich ELISA. […] Between these steps, the plate was washed twice with PBS-0.05% Tween with the aid of a PW plate-washing device (Tecan Industries) and, before filling with fresh solution, all remaining liquid residues were removed by tapping on Scott®Natura paper towels (Hakle-Kimberly Deutschland GmbH). After blocking of non-specific binding sites, the plate was washed three times and filled with 50 μl/well of 1% BSA-PBS. 2×25 μl per reaction batch were transferred to the plate as double values and were carefully mixed thereon (total volume per well: 75 μl). From each filled series, a further 25 μl/well were then again titrated on the plate in a series of two-stage dilutions (final volume per well: 50 μl). The plates so filled were then stored for 2 hours at 4° C. under stationary conditions. Each plate was then washed six times as described above and filled with 80 μl/well of Eu^3+-streptavidin staining solution (europium-streptavidin stock solution diluted 1:10,000 with 1% BSA-PBS) and incubated for 30 minutes at room temperature (RT). After washing for a further eight times, 100 μl/well of fluorescence-activated solution (enhancer) were then added and the signal was measured by means of a Victor^2-multilabelcounter (Wallac Oy) at an excitation wavelength of 340 nm and an emission wavelength of 615 nm in time-resolving mode.
The following experiment was therefore carried out. One catalyst in a fixed concentration of 0.05 mM was introduced into each of a number of batches for loading HLA-DR1 with HA-biot. The same concentration of a second catalyst was then added to each batch. As controls, 1×1% DMSO was added and, as negative control, a reaction mixture was prepared with 2×1% DMSO. The reaction mixtures were then incubated for 40 minutes as already described and the load was measured in a sandwich ELISA.
The resulting load was then determined in an ELISA using biotinylated peptide (see FIG. 1).
The amount of peptide/MHC complexes formed within this time was then determined by means of an ELISA assay (capture antibody: anti-HLA-DR; detection: fluorescent-labelled streptavidin). The activities of the individual compounds were grouped on the basis of the dose/activity curves obtained thereby.

[2] = target: T2, HLA-DR1 (DRB1*0101) (Homo sapiens, UniProt P01903+P01911, A100R/D57E/F55L/F60I/F76Y/I96L/L162R/M171V/P40L/Q125E/R42F/V115G/Y59C); assay: HLA-DR1-restricted T-cell response after catalysed loading of 721.221 cells (EvHA/X5, hCII19.3 T-cells); format: cell-based; settings: for catalytic activity on HLA-DR1, dose-activity curves of T-cell stimulation: HA306-318 on 721.221 cells, EvHA/X5 T-cells
T2 construct: HLA-DR-expressing 721.221 cells; endogenous in cells; host or cells: 721.221 cells
Text: In the present comparison test, the enhancement of the T-cell response by catalysis of the loading of HLA-expressing cells was investigated. […] Either HA306-318 (see also FIG. 3, left-hand panel) or CO260-273 (see also FIG. 3, right-hand panel) was used as peptide antigen. After the loading, the cells were washed and used to stimulate EvHA/X5 and hCII19.3 cells, respectively.
In order to investigate the catalysis of a HLA-DR1 (DRB1*0101)-restricted T-cell response by various catalytically active adamantyl compounds, dose-activity curves of the catalysis of a HLA-DR1 (DRB1*0101)-restricted T-cell response were prepared. The experiment was carried out analogously to Comparison Experiment 3.3, the peptide antigen HA306-318 being loaded onto 721.221 cells in order thereby to stimulate EvHA/X5 T-cells. […] Because the position of the dose-activity curves is evidently also determined by the side chain, a modulating activity can be attributed thereto.

[3] = target: T3, HLA-DR4 (DRB1*0401) on L243.6 cells (Homo sapiens, UniProt P01903+P01911, A100K/A169T/F76Y/I96L/K127E/L162R/M171V/N62H/P40V/Q125Y/R42H/S133A/S149N/S66Y/V115G/V209L/W38E); assay: Loading of HLA-DR4 on the cell surface of fibroblast cells with biotinylated peptide, flow cytometry; format: cell-based; settings: 4 hours, 37° C., active at markedly less than a tenth of the pCP concentration
T3 construct: expressed in transfected cells; host or cells: L243.6 fibroblast cells
Experimental: (§1) The catalytic properties of found substances on the loading of MHC class II molecules located on cells was determined in cell loading experiments. To this end, from 50,000 to 100,000 cells in 50 μl of DMEM were mixed with 50 μl of 24 μM HA-biot. dissolved in DMEM and 50 μl of catalyst solution (different concentrations dissolved in DMEM with a maximum DMSO content of 3%) and incubated for 4 hours at 37° C. and 10% CO2. As controls, only 50 μl of peptide solution and 50 μl of DMEM were added to cells in several batches. At the end of the incubation time, the cells were centrifuged off for 5 minutes at 1300 rpm, and supernatant medium was removed. […] After removal of the supernatant, the cell pellets were again detached and taken up in 50 μl/well of streptavidin-phycoerythrin solution (SA-PE stock solution (1 mg/ml) diluted 1:200 with 2% FCS-PBS). Staining was carried out for 30 minutes at 4° C. with the exclusion of light, in order to avoid excessive decomposition of the fluorescent dyes. […] The cells were then analysed using a continuous-flow cytometer. […]

[4] = target: T4, HLA-DR1 (DRB1*0101) on L57.23 cells (Homo sapiens, UniProt P01903+P01911, A100R/D57E/F55L/F60I/F76Y/I96L/L162R/M171V/P40L/Q125E/R42F/V115G/Y59C); assay: Loading of HLA-DR1 on the cell surface of fibroblast cells with biotinylated peptide, flow cytometry; format: cell-based; settings: 4 hours, 37° C., active at markedly less than a tenth of the pCP concentration
T4 construct: expressed in transfected cells; host or cells: L57.23 fibroblast cells
Experimental: as §1

[5] = target: T5, empty, soluble HLA-DR1 complexes (Homo sapiens, UniProt P01903+P01911, A100R/D57E/F55L/F60I/F76Y/I96L/L162R/M171V/P40L/Q125E/R42F/V115G/Y59C); assay: High-throughput HLA-DR1 loading test of the substance library and validation of hits; format: biochemical; settings: final concentration of 0.4 mM
T5 construct: shortened α- and […]-chains without the cytoplasmatic and transmembrane portion of the MHC molecule; made in house; host or cells: S2 insect cells
Experimental: The compounds of formulae I, IA, II, III and IV1 to IV3 to be tested were supplied in 384-well plates in the form of a 160 mM starting library, dissolved in DMSO, from which an aliquot library had to be prepared. By manually removing 2 μl/well and diluting with 38 μl/well of DMSO, a 8 mM stock library was prepared, which was used for all further tests. In order to analyse the compounds of formulae I, IA, II, III and IV1 to IV3 that were present for their effect on MHC class II molecules, a high-throughput method based on a HLA-DR1 loading test was used. To this end, two 384-well Nunc-Maxisorp plates (ELISA plates) per library plate were coated overnight at 4° C. with 60 μl/well of monoclonal anti-HLA-DR antibody (L243 stock solution (1 mg/ml) diluted 1:500 in 100 mM NaHCO3). The plates were then washed three times by immersion in PBS-0.05% Tween solution and removal of air bubbles by tapping the plate against the wall of the washing vessel. Remaining washing solution was removed by beating the plates on paper towels, and 80 μl/well of 2% BSA-PBS were introduced. Non-specific binding was to be prevented by incubation at 37° C. for at least one hour. […] Excess staining solution was then removed by washing eight times with PBS-0.05% Tween, and 80 μl/well of fluorescence-activated solution (enhancer) were added manually by means of a pipette. […]

[6] = target: T6, soluble HLA-DR1 (DRB1*0101) (Homo sapiens, UniProt P01903+P01911, A100R/D57E/F55L/F60I/F76Y/I96L/L162R/M171V/P40L/Q125E/R42F/V115G/Y59C); assay: MHC loading assay for identifying immunotoxic compounds (4 hours, ELISA); format: biochemical; settings: biotinylated HA306-318
T6 construct: shortened α- and […]-chains without the cytoplasmatic and transmembrane portion of the MHC molecule; made in house; host or cells: S2 insect cells

[7] = tested on: MHC class II; settings: prior-art small molecules with H-donor properties; cited from earlier work
[8] = tested on: L57.23 cells
Experimental: In order to determine the toxicity of the found substances, from 50,000 to 100,000 cells (L57.23) in 100 μl of DMEM were mixed with 50 μl of the catalysts in the indicated concentrations (dissolved in DMEM at a maximum concentration of 3% DMSO) and incubated for four hours at 37° C. and 10% CO2 in a humid incubator. As control, only 50 μl of DMEM were added to cells. The cells were then centrifuged off for 5 minutes at 1300 rpm, and the supernatant medium was discarded carefully. The cell pellets were then detached by brief vortexing of the entire plate at a low level, resuspended with 100 μl/well of 5% FCS-PBS and centrifuged again for 5 minutes at 1300 rpm. The supernatant was then discarded again and the cell pellets were dissolved in 100 μl/well of propidium iodide staining solution (25 pg/ml). The cell suspension was then transferred to 5 ml Falcon® round-bottomed test tubes, which had previously been filled with 300 μl of 5% FCS-PBS, and then analysed using a BD FACSCalibur™System continuous-flow cytometer.

Compound: Oc1ccccc1-c1ccccc1 [2-HBP]
- relative increase in the load, amount doubled ([1]; 0.05 mM + same concentration of the same catalyst): increases
- relative increase in the load ([1]; 0.05 mM catalyst + 1% DMSO, 40 minutes): about 10%

Compound: COc1ccc2c(c1)OCC2=NO [#3651, 6-methoxybenzofuran-3(2H)-one-oxime]
- catalytic activity on HLA-DR1, dose-activity curves of T-cell stimulation [2]: weaker but still exhibits higher activity than pCP

Compound: CC(C)(O)C1CCC2(C)C(C1)C2(Cl)Cl (stereo not drawn) [#4230, 2-(7,7-dichloro-6-methyl-bicyclo[4.1.0]heptan-3-yl)-propan-2-ol]
- catalytic activity on HLA-DR1, dose-activity curves of T-cell stimulation [2]: corresponds approximately to that of adamantylethanol

Compound: NNC(=O)c1cc(C23CC4CC(CC(C4)C2)C3)n[nH]1 [AdCaPy, 3-(1-adamantyl)-5-carbohydrazide pyrazole]
- loading of cells with HA306-318, dose-activity curves compared with pCP [3]: substantially more active than pCP
- immune response of HLA-DR1-restricted T-cells ([2]; HA306-318 (EvHA/X5) or CO260-273 (hCII19.3) loaded onto 721.221 cells): markedly enhanced
- loading of cells with HA306-318, dose-activity curves compared with pCP [4]: substantially more active than pCP

Compound: Oc1cc(Cl)c(Cl)cc1O [DCC, 1,2-dichloro-4,5-dihydroxybenzene, reference compound]
- catalytic activity of phenol/aniline compounds, comparison of dose-activity curves ([1]; accelerated loading of soluble HLA-DR1 with HA306-318, compared with pCP): slightly increased activity
- load signal (threshold value of library analysis) [5]: 15,000 counted events

Compound: OCC(O)CNc1ccccc1 (stereo not drawn) [III 36, 3-N-phenylaminopropanediol]
- acceleration of the loading of MHC molecules with peptide ligands [6]: able to accelerate the loading of MHC molecules with peptide ligands
- activity compared with pCP [6]: markedly lower than that of pCP

Compound: CCCO [n-propanol]
- concentration required for use [7]: over 200 mM

Compound: Oc1ccccc1 [phenol]
- concentration required for use [7]: 30 mM

Compound: dichlorophenylhydroxyiminoacetamide [DPHIA]
- catalytic activity in the ELISA [1]: similarly good results as AdaEtOH
- toxicity [8]: even lower toxic effects than AdaEtOH or 4-HBP
